Some results are limits rather than exact numbers.

Compound `O=C(O)COc1cc(F)ccc1C(=O)NCc1nc2c(F)c(F)cc(F)c2s1` gave a melting point of 172 to 174 °C.

In turn, `Cc1cc2c(s1)Nc1ccccc1N=C2N1CCN[C@@H](CCc2ccccc2)C1` yielded a melting point of 75 to 84 °C.

Regarding `N#CC(Cc1ccccn1)(C(N)=O)c1ccc([N+](=O)[O-])cc1` (centres undefined), the melting point lay within 79 to 81 °C.

On to `OC(COc1ccccc1Cl)(Cn1cncn1)Cn1cncn1`, for which the melting point stood at 95 °C.

`CS(=O)c1ccc(C(=O)c2cnoc2C2CC2)c(Cl)c1` (centres undefined) registered a melting point of 117 °C.

Take `COc1cccc2c1CCN(c1nc(C)[nH]c(=O)c1[N+](=O)[O-])CC2`: the melting point was above 200 °C.

The compound `COc1cc2[nH]c(=O)n(S(=O)(=O)c3ccc(Cl)cc3)c(=O)c2cc1OC` registered a melting point above 250 °C.

Take `COC(=O)c1cccc2[nH]c(Sc3cccc4c(=O)cc[nH]c34)nc12`: the melting point is above 250 °C.

Compound `CN1Cc2c(-c3nc(CN4Cc5ccccc5C4)no3)ncn2-c2ccccc2C1=O` displayed a melting point of 155 to 160 °C.

As for `O=C(O)c1cc(N2CCN(Cc3ccccc3)CC2)ccc1[N+](=O)[O-]`, the melting point stood at 172 °C.

Turning to `CCCn1cc2c(C3C(=O)Nc4ccc(Br)cc43)nc(NCC3CCCO3)nc2n1` (centres undefined), the melting point was in the range of 309 to 312 °C.

In turn, `CCOC(=O)/C(=N\O[C@@H]1CCCC[C@@H]1C)c1csc(N)n1` (relative stereo) gave a melting point of 123 to 126 °C.

`COc1ccc(-c2cc(N3CCN(c4ccccc4)CC3)nc(C)c2-c2ccc(OC)cc2)cc1` yielded a melting point of 173 to 174 °C.

With `CC(C)c1cc(Oc2ccc(Cl)cc2)nc(C(C)C)c1N=C=NC(C)(C)C`, the melting point lay within 46 to 55 °C.

For `CCOC(=O)c1cc(C(=O)O)nc2cc(Cl)cc(Cl)c12`, the melting point lay in the range of 152 to 154 °C.

The compound `COC(=O)NN=C1CCCCC1=Cc1ccc(Cl)cc1` yielded a melting point of 160 to 162 °C.

Take `CC(C)(C)OC(=O)N1CCC(c2ccc(COc3cccc([N+](=O)[O-])c3)nc2)CC1`: the melting point is 94 to 96 °C.

As to `C[Si](C)(C)c1cc(C(=O)O)cc([Si](C)(C)C)c1`, the melting point is above 300 °C.

For the compound `CC(C)(C)C1=NN=C(N)SC1`, the melting point fell in the range of 75 to 77 °C.

`CN(C)c1ccc2c(c1)nc(/C=C/c1ccccc1)n2-c1ccccn1`: the melting point lay in the range of 170 to 171 °C.

For the compound `Nc1ccc(OCc2ccc(Cl)nc2)cc1F`, the melting point amounted to 101 °C.

`CP(=O)(CCl)C1CCCCC1` (centres undefined) yielded a melting point of 51 to 53 °C.

`Nc1nc(Cl)c(C(F)(F)F)cc1Cl`: the melting point is 110 to 112 °C.

Turning to `CN(C)C1CCC(Nc2nc3cc4c(cc3nc2-c2ccccn2)CCC4)CC1` (centres undefined), the melting point lay within 158 to 161 °C.

`CCOC(=O)C1=C(COCC(N)=O)NC(C)=C(C(=O)OC)C1c1ccccc1Cl` (centres undefined): the melting point fell in the range of 127 to 128 °C.

With `CC1=C(CC(=O)O)c2cc(F)c(F)cc2C1=Cc1ccc(S(C)=O)cc1` (centres undefined), the melting point fell in the range of 200 to 210 °C.

Compound `Clc1ccc2c(C3=CCN(CCNc4ccccn4)CC3)c[nH]c2c1` showed a melting point of 217 to 219 °C.

For the compound `Nc1nc(-c2ccc(CCN3CCN(c4cccc5cc(F)ccc45)CC3)cc2)cs1`, the melting point is 220 to 225 °C.

Regarding `CCOC(=O)c1ncn2c1cnc1ccccc12`, the melting point fell in the range of 195 to 196 °C.

`COc1ccc(-c2c(Cl)c(CN3C(=O)CCC3=O)nc3sc4c(c23)CCC(C(=O)O)C4)cc1` (centres undefined) had a melting point of 258 to 259 °C.

With `O=C(CC1=C(n2nc(-c3c(-c4ccccc4)nn4ccccc34)ccc2=O)CCCC1)N1CCNCC1`, the melting point lay in the range of 208 to 209 °C.

`O=Cc1cccc(Oc2ccccc2)c1F` had a melting point of 75 to 77 °C.

Compound `O=C(O)CCc1cnoc1-c1ccc(Cl)s1` yielded a melting point of 138 to 139 °C.

Compound `N#Cc1cncc(C=O)c1` yielded a melting point of 96 to 98 °C.

Consider `COCOc1ccc(C(=O)O)c(OCc2ccc(Cl)cc2Cl)c1C`, for which the melting point was found to be 174 °C.

For the compound `CCCCOc1c2ccccc2nc2c1c(C)nn2-c1ccccn1`, the melting point is 59 to 61 °C.

`CC(C)CC(NC(=O)OCc1ccccc1)C(=O)NC(Cc1ccc2ccccc2c1)C(=O)CSCc1ccco1` (centres undefined): the melting point was in the range of 103 to 104 °C.

Consider `c1ccc(-c2nc3cc4oc(-c5ccccc5)nc4cc3o2)cc1`, for which the melting point is 319 to 323 °C.

Regarding `O=C(c1ccc(Cl)cc1)C(CC1OCCO1)Sc1ccccc1` (centres undefined), the melting point fell in the range of 74 to 75 °C.

`CCOC(=O)CCCCCCCn1cnc(-c2ccc(O)cc2)c1-c1ccc(O)cc1` registered a melting point of 186 to 187 °C.

As for `COc1cc(Oc2cccc(C)n2)c(C=CC(=O)c2ccc(S(N)(=O)=O)cc2)cc1-c1cccs1`, the melting point was in the range of 164 to 165 °C.

The compound `COc1ccc(N)c(-c2ccc3cc(OC)c(OC)cc3c2)c1` showed a melting point of 158 to 160 °C.

`CC(C)(CC(C)(c1ccc(O)cc1)c1ccc(O)cc1)c1ccc(O)cc1` registered a melting point of 150 to 151 °C.

Consider `O=C(O)CCCCCCCCCCCNC(=O)CCCCCCCCCCI`, for which the melting point lay in the range of 107 to 110 °C.

The compound `CN(C)C(=O)c1cc(Cl)c(N)c(Cl)c1` showed a melting point of 134 °C.

Compound `FC(F)(F)c1nc(Cl)c(Cl)[nH]1` yielded a melting point of 186 to 188 °C.

For the compound `O=c1ccc2c(-c3ccccc3)nccc2[nH]1`, the melting point was in the range of 261 to 263 °C.

On to `COc1cccc(C(=O)Nc2ccc(N3CCN(Cc4cccc(C#N)c4)CC3)cc2)c1OCc1ccc(C(F)(F)F)cc1`, for which the melting point is 118 to 120 °C.

Regarding `CC(C)(O)CCCCc1ccc(C=Cc2ccc(CO)c(CO)c2)cc1`, the melting point was 102 to 104 °C.

Consider `COC(=O)NC(=O)c1nc(Cl)c(Cl)[nH]1`, for which the melting point worked out at 247 °C.

`COc1cn(-c2ccc(C#CC3CC3)cc2F)nc(-c2ccnn2-c2ccccc2)c1=O` displayed a melting point of 145 to 146 °C.

In turn, `CCCc1c(C(=O)C(C)C)c2ccc(C(=O)O)cc2n1Cc1ccc(Br)cc1F` came in with a melting point of 210 to 211 °C.

For the compound `CON=CCOc1ccccc1S(N)(=O)=O`, the melting point lay in the range of 103 to 105 °C.

In turn, `CC1C(=NO)CC2(O)C3Cc4ccc(O)c5c4C2(CCN3CC2CC2)C1O5` (centres undefined) had a melting point of 172 to 173 °C.

For the compound `CC(=O)NCCC(=O)NCCO`, the melting point fell in the range of 122 to 125 °C.

On to `OC(c1ccc2c(c1)CCN2Cc1ccccc1)(C(F)(F)F)C(F)(F)F`, for which the melting point was in the range of 85 to 90 °C.

`OC(c1nnn[nH]1)c1ccccc1Cl` (racemic) returned a melting point of 130 to 132 °C.

For `O=C(NCc1ccc(Cl)cc1)c1n[nH]c2ncc(I)cc2c1=O`, the melting point was above 300 °C.

Compound `CC(C)NC(=O)Nc1nc2nc(N)ncc2cc1-c1c(Cl)cccc1Cl` gave a melting point of 184 to 188 °C.

`CCNC(=O)c1c([Si](C)(C)C)ccc(C(=O)OC)c1Cl` registered a melting point of 103 to 104 °C.

The compound `Cc1ccc2c(c1)c(Cl)c(C#N)c(=O)n2C` yielded a melting point of 241 °C.

Consider `CC(C)(C)OC(=O)CON=C(C(=O)O)c1ccco1`, for which the melting point fell in the range of 105 to 106 °C.

In turn, `CN(C)C(=O)c1ccc(NC(=O)C(C)(C)C)cc1C(F)(F)F` came in with a melting point of 199 to 200 °C.

Take `NC(=O)N1CC(Oc2cccc(Br)c2)C1`: the melting point lay within 188 to 189 °C.

In the case of `CNC1=NS(=O)N=C1NCCCNc1ncc(Br)cc1C` (centres undefined), the melting point lay in the range of 211 to 212 °C.

Compound `O=C(O)CCCCCNC(=O)c1cc2cc3c(cc2c2cc(OCc4ccccc4)ccc12)OCO3` came in with a melting point of 198 to 200 °C.

`COC(=O)c1cc(S(N)(=O)=O)c(F)cc1N`: the melting point fell in the range of 209 to 211 °C.

With `O=C(OCc1ccccc1)c1ccc(OCc2ccc(COc3ccc(C(=O)OCc4ccccc4)cc3)cc2)cc1`, the melting point is 154 to 157 °C.

For the compound `COC(=O)CCn1cc(-c2cccnc2)c2cc([N+](=O)[O-])ccc21`, the melting point lay in the range of 123 to 125 °C.

`Nc1[nH]ncc1-c1cccc(N2CCN(CCO)CC2)c1` displayed a melting point of 40 to 48 °C.

`CC(=O)SCSCc1cn(C(c2ccccc2)(c2ccccc2)c2ccccc2)nn1` registered a melting point of 106 °C.

In turn, `COC(=O)c1cccn1Cc1ccccc1[N+](=O)[O-]` showed a melting point of 105 to 107 °C.

For the compound `O=C(Nc1ccc(C2=CCN(C(=O)Nc3ccc(OCCO)cc3C(F)(F)F)CC2)cc1)Nc1ccccc1F`, the melting point fell in the range of 110 to 112 °C.

Consider `Nc1nc2c(Oc3ccccc3)cccc2s1`, for which the melting point lay within 135 to 137 °C.

In turn, `Cc1cccc2sc(COc3ccc(F)c(C(N)=O)c3F)nc12` showed a melting point of 201 to 202 °C.

For the compound `COc1ccc2[nH]c(S(=O)Cc3cc(N4CCOCC4)c(F)cn3)nc2c1` (centres undefined), the melting point fell in the range of 109 to 111 °C.

`CC(CC1(c2ccccc2)C=CCC=C1)N(C)C` (centres undefined) came in with a melting point of 87 to 90 °C.

With `Cc1cccnc1NC(=O)Nc1cccc2c1C1CC(O)CCN1C2=O` (centres undefined), the melting point lay within 204 to 206 °C.

`CCCCCCCCCCCCCCCCCC(=O)ON1C(C)(C)CC(OC(C)=O)CC1(C)C` registered a melting point of 55 to 58 °C.

With `COC(=O)CCNc1ccccc1CNC(=O)C1Cc2ccccc2N1S(=O)(=O)c1ccc(I)cc1` (centres undefined), the melting point is 67 to 75 °C.

For `Cc1ccc2c(=O)c(S(=O)(=O)Cl)cn(C)c2c1`, the melting point is above 300 °C.

Regarding `N#CC=C1CCN(c2ccc(N3C[C@@H](Cn4cc(C#N)nn4)OC3=O)cc2F)CC1`, the melting point fell in the range of 78 to 80 °C.

As to `Oc1cnc2c(O)cccc2c1`, the melting point was 139 to 141 °C.

`CCN(CC)CCNc1ccc(CO)c2sc3ccc(OC)cc3c(=O)c12` yielded a melting point of 103 to 105 °C.

For `NC(=O)c1sc2nc(N3CCC(NCC(O)c4ccc5c(c4)OCO5)CC3)cc(C(F)(F)F)c2c1N` (centres undefined), the melting point lay within 232 to 234 °C.

As to `CS(=O)(=O)c1ccc(-n2nc(CCCNC(=O)Nc3cccc(C(F)(F)F)c3)cc2-c2ccccc2)cc1`, the melting point was in the range of 150 to 152 °C.

Turning to `COc1cccc2c1CC(COS(=O)(=O)c1ccc(C)cc1)CC2` (centres undefined), the melting point is 53 to 58 °C.

In turn, `Nc1cc(-n2ccc(=O)cc2)ccc1[N+](=O)[O-]` yielded a melting point of 298 to 303 °C.

In turn, `CC(C)C(=O)c1cn(Cc2c(F)cccc2F)c2sc(-c3ccc([N+](=O)[O-])cc3)c(CBr)c2c1=O` displayed a melting point of 202 to 204 °C.

As a reminder, the melting point is the temperature, or range, at which the solid turns liquid.

For the origin of these results see a melting point compilation (Tetko et al.; mined from patent text by program, amines drawn as free bases though some values may be those of a salt).
